Laboratory results published in US10155948B2, “Pharmaceutical composition for preventing or treating diabetic complications and screening method for preventive or therapeutic agent for diabetic complications” (KANGWON NATIONAL UNIVERSITY UNIVERSITY-INDUSTRY COOPERATION …, priority 2016, dated 2018).

Legend:
HRECs = assay: Visualization of actin filaments (stress fiber formation) in HRECs; assay type: cell-based, human; settings: for VEGF-induced stress fiber formation: summary statement, conditions not given; for VEGF-activated stress fiber formation: HRECs, 50 μM cystamine or 20 μM MDC 30 min, 10 ng/ml VEGF
Experimental: Actin filaments and VE-cadherin were visualized as previously described. For visualization of actin filaments, cells were treated with 10 ng/ml VEGF for 1 hr at 37° C., fixed with 3.7% formaldehyde, and permeabilized with 0.2% Triton X-100. […] For visualization of VE-cadherin, cells were preincubated with the TGase2 inhibitors for 30 min and treated with 10 ng/ml VEGF for 90 min at 37° C. Following fixation and permeabilization, cells were incubated overnight with a monoclonal anti-VE-cadherin antibody (1:200, Santa Cruz Biotechnology) at 4° C. Cells were then probed with an FITC-conjugated goat anti-mouse antibody (1:200, Sigma) and VE-cadherin was visualized using confocal microscopy. Adherens junctions are represented by histograms of VE-cadherin as indicated by dotted lines and were quantitatively analyzed using peak fluorescence intensities of the histograms at the single-cell level for 10 randomly selected cells per experiment.
(A-C) HRECs were preincubated with 50 μM cystamine (Cys) and 20 μM MDC for 30 min and treated with 10 ng/ml VEGF. Stress fibers and VE-cadherin were stained and visualized by confocal microscopy as described in Research Design and Methods (n=3) ((A) Representative images of stress fibers. Scale Bar, 30 μm. (B) Representative images of VE-cadherin. Scale Bar, 10 μm). Adherens junctions are represented by histograms of VE-cadherin as indicated by dotted lines. (C) Adherens junctions were quantitatively analyzed using the peak fluorescence intensities of the histograms at the single-cell level. The results are expressed as mean±SD from three independent trials. (D) In-vitro endothelial cell monolayer permeability assay. HRECs on inserts of Transwell® Permeable Supports were incubated with 50 μM cystamine and 20 μM MDC for 30 min and treated with 10 ng/mL VEGF for 90 min. The amount of FITC-dextran that diffused to the lower chamber was measured by a microplate spectrofluorometer (n=3) (**p<0.01).
HRECs were transfected with 100 nM human TGase2-specific siRNA (TGase2 siRNA) or 100 nM control (Ctrl) siRNA. Endothelial cells were treated with 10 ng/ml VEGF and subjected to the confocal microscopic visualization of stress fibers (A) and VE-cadherin (B), as described in Research Design and Methods (n=3). (A) TGase2 siRNA inhibition of VEGF-induced formation of stress fibers. Scale bar, 30 μm. (B) Representative images of VE-cadherin and adherens junctions represented by VE-cadherin histograms. Scale bar, 10 μm. (C) Adherens junctions were quantitatively analyzed using peak fluorescence intensities of the histograms at the single-cell level. Results are expressed as mean±SD from three independent experiments (***p<0.001).

retinas of diabetic mice = assay: Vascular leakage in retina of diabetic mice (fluorescein angiography, FITC-dextran); assay type: in vivo, mouse; settings: for increase of vascular leakage in retinas of diabetic mice: intravitreal injection, 0.5 mM dopamine, 500 mM cysteamine, n=6; for vascular leakage in diabetic retina (FITC-dextran extravasation): diabetic mice, intravitreal 2 μl 50 mM cystamine or 20 mM MDC, after 24 hrs, p<0.001, n=8
Experimental: Two weeks after streptozotocin injection, diabetic mice were intravitreally injected with 2 μl of TGase inhibitors (50 mM cystamine or 20 mM MDC), 1 μM C-peptide (American Peptide Company, Sunnyvale, Calif.), ROS scavengers (2 μM Trolox or 500 mM NAC), or 65 μM mouse TG2-specific siRNA (Dharmacon, Lafayette, Colo.) into one eye and an equal volume of PBS or mouse control siRNA (Dharmacon, Lafayette, Colo.) into the contralateral eye. Non-diabetic mice were also intravitreally injected with 2 μl of PBS or mouse control siRNA into the eyes. After 24 hrs for inhibitors or C-peptide or 48 hrs for mouse TGase2 siRNA, mice were subjected to measurement of in-vivo TGase activity and vascular leakage from the retina.
Microvascular leakage in mouse retina was investigated via the fluorescein angiography method as previously described. In brief, 24 hrs or 48 hrs after intravitreal injection of TGase2 inhibitors or mouse TGase2 siRNA, respectively, mice were deeply anaesthetized and 1.25 mg of 500 kDa FITC-dextran (Sigma) was injected into the left ventricle. The dye was allowed to circulate for 5 min and mice were sacrificed via cervical dislocation. The eyes were enucleated and immediately fixed with 4% paraformaldehyde for 45 min. Retinas were dissected in the Maltese cross-configuration and flat-mounted onto glass slides. The superficial vessels of the retinas (n=8 per group) were observed by confocal microscopy and vascular leakage was quantitatively analyzed using the Fluoview software by determining the fluorescence intensities of FITC-dextran extravasated from the retina vessel.
Six-week-old male C57BL/6 mice were obtained from KOATECH (Pyeongtaek, Korea). TGase2^−/− mice (C57BL/6) were prepared by disrupting exons 5 and 6 of TGase2 by homologous recombination, as previously described. Diabetic mice were generated by a single intraperitoneal injection of streptozotocin (150 mg/kg body weight, Sigma) freshly prepared in 100 mM citrate buffer (pH 4.5) as previously described. Mice with non-fasting blood glucose levels greater than 19 mM, polyuria and glucosuria were considered diabetic. Experiments were performed in strict accordance with the guidelines of the Institutional Animal Care and Use Ethics Committee of Kangwon National University.
(A, B) Streptozotocin-diabetic mice were intravitreally injected with PBS (diabetic), cystamine (diabetic+Cys) or MDC (diabetic+MDC) into the eyes. Non-diabetic mice were also intravitreally injected with PBS into eyes (normal). […] (B) Retina permeability was quantified by measuring the fluorescence intensities of FITC-dextran in (A). […]
Dopamine and cysteamine were intravitreally injected into mouse eyes, and diabetic retinas were then analyzed for vascular leakage through fluorescein angiography.

Structure (SMILES)	VEGF-induced stress fiber formation (HRECs)	increase of vascular leakage in retinas of diabetic mice (retinas of diabetic mice)	VEGF-activated stress fiber formation (HRECs)	vascular leakage in diabetic retina (FITC-dextran extravasation) (retinas of diabetic mice)
NCCS [cysteamine]	prevented	inhibited		
CN(C)c1cccc2c(S(=O)(=O)NCCCCCN)cccc12 [MDC, monodansylcadaverine]			prevented	prevented
NCCSSCCN [cystamine]			prevented	prevented
NCCc1ccc(O)c(O)c1 [dopamine]	prevented	inhibited		
